In publication PMC7413516, “Antidepressant-like activity and safety profile evaluation of 1H-imidazo[2,1-f]purine-2,4(3H,8H)-dione derivatives as 5-HT1A receptor partial agonists” (PLoS ONE, 2020):
Several values for one entry are separate records, joined by “and”; a condition that tells them apart may be missing. Equal entries are not always repeated. Where two headings read alike, the source gives them in different places.

Assay: Pharmacokinetic study in mice, plasma and brain structures, LC/MS/MS
Type: in vivo, Swiss albino mice
Conditions: 1.25 mg/kg i.p.; for Kp: ratio of AUC values
Experimental: Blood samples from the Swiss albino mice were collected at 0 (pre-dose), 5, 15, 30, 60, 120, 240 and 480 min after a compound administration. The blood samples and brain structures were collected under general anesthesia induced by i.p. injection of 50 mg/kg ketamine plus 8 mg/kg xylazine. The blood samples were taken into heparinized tubes, immediately centrifuged at 1000 × g for 10 min, and plasma was collected. The plasma samples and brain structures were immediately frozen at -30°C and -80°C, respectively.
The plasma and tissue sample pretreatment procedure involved acetonitrile precipitation. A 5 μL aliquot of the IS working solution (100 ng/mL) was added to 50 μL of the collected mouse plasma sample, which was then vortex-mixed for 10 seconds. Thereafter, 200 μL of acetonitrile was added, vortexed during 20 min, and then centrifuged (1000 × g, 10 min). The supernatant (100 μL) was then transferred to insert placed in an autosampler vial, and a 10 μL volume of this was injected onto the HPLC column. Tissue samples were thawed before use, and whole hippocampus, striatum and frontal cortex were weighted and placed in a glass mortar and pestle tissue grinder and homogenized with an appropriate amount of phosphate buffer (pH 7.4) in 1:5 ratio. Afterward, 50 μL of tissue homogenates were transferred to new Eppendorf tubes and spiked with 5 μL of the internal standard working solution. All samples were stored on ice during the preparation process. This was followed by procedures like those described above.
The LC/ESI-MS/MS experiments were performed on an Applied Biosystems/MDS Sciex (Concord, Ontario, Canada) API 2000 triple quadrupole mass spectrometer equipped with an electrospray (ESI) ionization interface. This instrument was coupled to an Agilent 1100 (Agilent Technologies, Waldbronn, Germany) LC system. Data acquisition and processing were accomplished using Sciex Analyst 1.4.2 data collection and integration software.
An XBridge C18 (2.1 x 30 mm, 3.5 μm) analytical column (Waters, Milford, Massachusetts, USA) was used for compound separation. The temperatures of the column thermostat and the autosampler were set at 25°C and 10°C, respectively. The mobile phase consisted of a mixture of acetonitrile with addition of 0.1% formic acid (solvent A) and water with addition of 0.1% formic acid (solvent B) and was set at a flow rate of 0.6 mL/min. Starting amount of solvent A is 10%, isocratic elution from 0 to 3 min, and then gradient up to 90% of solvent A, and maintained to 10 min, and then gradient down to 10% of solvent A, and maintained to 15 min.
The ion source parameters were as follows: ion spray voltage: 5500 V; nebulizer gas (gas 1): 20 psi; turbo gas (gas 2): 25 psi; temperature of the heated nebulizer: 400°C; curtain gas: 40 psi; collision gas: 6 psi. Mass spectra were acquired by SRM with precursor/predominant product ion transitions for each analyte. The mass spectral Q1→Q3 transitions monitored for AZ-853, AZ-861 and for IS (nebivolol), were m/z 453.9→235.1; 504.3→285.1 and 406.2→151.1, respectively. The peak widths of precursor and product ions were set to 0.7 full width half-height. Quantification was done via peak area ratio.
Pharmacokinetic parameters were calculated by a non-compartmental approach from the average concentration values, using Phoenix WinNonlin software (Certara, Princeton, NJ 08540 USA). First order elimination rate constant (λz) was calculated by linear regression of time versus log concentration. Next, the area under the mean serum and tissue concentration versus time curve (AUC0→t) was estimated using the log-linear trapezoidal rule (1), where Ci is the plasma concentration measured at t1.
AUC0→t=∑i=1n((Ci+Ci+1)/2)∙(ti+1−ti). (1)
Area under the first-moment curve (AUMC0→t) was estimated by calculation of the total area under the first-moment curve using the Eq (2), where Ci is the plasma concentration measured at t1. AUMC0→t=∑i=1n((ti∙Ci+ti+1∙Ci+1)/2)∙(ti+1−ti). […]

**Q.** What does the source list for `Cn1c(=O)c2c(nc3n(CCCCN4CCN(c5cccc(C(F)(F)F)c5)CC4)ccn23)n(C)c1=O` [AZ-861, 1,3-dimethyl-8-(4-(4-(3-(trifluoromethyl)phenyl)piperazin-1-yl)butyl)-1H-imidazo[2,1-f]purine-2,4(3H,8H)-dione]?
**A.** t0.5: ca. 1.5 h; t0.5, frontal cortex: 91.6 min; t0.5, hippocampus: 110.4 min; t0.5, striatum: 83 min; t0.5, plasma (1.25 mg/kg): 97 min and 97.5 min; Concentration, plasma (individual animals) (5 min, 1.25 mg/kg): 45.82 ng/mL; Concentration, frontal cortex (individual animals) (15 min, 1.25 mg/kg): 230.57 ng/mL and 280.45 ng/mL and 263.78 ng/mL and 270.14 ng/mL and 226.47 ng/mL; Concentration, hippocampus (individual animals) (15 min, 1.25 mg/kg): 234.13 ng/mL and 378.52 ng/mL and 328.15 ng/mL and 322.19 ng/mL and 317.44 ng/mL; Concentration, plasma (individual animals) (15 min, 1.25 mg/kg): 44.70 ng/mL and 36.90 ng/mL and 42.80 ng/mL and 28.74 ng/mL and 38.15 ng/mL; Concentration, striatum (individual animals) (15 min, 1.25 mg/kg): 389.35 ng/mL and 271.77 ng/mL and 374.54 ng/mL and 325.44 ng/mL and 267.13 ng/mL; Concentration, frontal cortex (individual animals) (30 min, 1.25 mg/kg): 184.45 ng/mL and 218.78 ng/mL and 190.14 ng/mL and 183.24 ng/mL and 219.17 ng/mL; Concentration, hippocampus (individual animals) (30 min, 1.25 mg/kg): 192.35 ng/mL and 319.65 ng/mL and 217.19 ng/mL and 301.16 ng/mL and 245.19 ng/mL; Concentration, plasma (individual animals) (30 min, 1.25 mg/kg): 31.10 ng/mL and 30.60 ng/mL and 22.40 ng/mL and 15.17 ng/mL and 19.56 ng/mL and 30.17 ng/mL; Concentration, striatum (individual animals) (30 min, 1.25 mg/kg): 310.53 ng/mL and 258.57 ng/mL and 322.23 ng/mL and 318.66 ng/mL and 277.19 ng/mL; Concentration, frontal cortex (individual animals) (60 min, 1.25 mg/kg): 97.18 ng/mL and 109.15 ng/mL and 91.75 ng/mL and 83.56 ng/mL and 89.47 ng/mL; Concentration, hippocampus (individual animals) (60 min, 1.25 mg/kg): 110.60 ng/mL and 98.83 ng/mL and 88.50 ng/mL and 94.16 ng/mL and 88.17 ng/mL; Concentration, plasma (individual animals) (60 min, 1.25 mg/kg): 6.60 ng/mL and 4.60 ng/mL and 6.58 ng/mL and 5.72 ng/mL and 4.19 ng/mL; Concentration, striatum (individual animals) (60 min, 1.25 mg/kg): 69.53 ng/mL and 62.19 ng/mL and 51.27 ng/mL and 55.66 ng/mL and 48.45 ng/mL; Concentration, frontal cortex (individual animals) (120 min, 1.25 mg/kg): 41.78 ng/mL and 43.56 ng/mL and 39.11 ng/mL and 40.15 ng/mL and 41.18 ng/mL; Concentration, hippocampus (individual animals) (120 min, 1.25 mg/kg): 51.18 ng/mL and 56.82 ng/mL and 60.95 ng/mL and 47.42 ng/mL and 49.13 ng/mL; Concentration, plasma (individual animals) (120 min, 1.25 mg/kg): 2.36 ng/mL and 2.87 ng/mL and 3.33 ng/mL and 3.12 ng/mL and 1.97 ng/mL; Concentration, striatum (individual animals) (120 min, 1.25 mg/kg): 30.75 ng/mL and 29.92 ng/mL and 21.66 ng/mL and 19.44 ng/mL and 23.17 ng/mL; Concentration, frontal cortex (individual animals) (240 min, 1.25 mg/kg): 18.75 ng/mL and 10.56 ng/mL and 16.25 ng/mL and 9.48 ng/mL; Concentration, hippocampus (individual animals) (240 min, 1.25 mg/kg): 15.35 ng/mL and 24.14 ng/mL and 23.55 ng/mL and 16.56 ng/mL; Concentration, plasma (individual animals) (240 min, 1.25 mg/kg): 0.67 ng/mL and 0.70 ng/mL and 0.34 ng/mL and 0.41 ng/mL and 0.57 ng/mL and 0.66 ng/mL; Concentration, striatum (individual animals) (240 min, 1.25 mg/kg): 4.87 ng/mL and 5.95 ng/mL and 6.85 ng/mL and 4.94 ng/mL; Vd/F (plasma, 1.25 mg/kg): 83 L/kg and 83.4 L/kg; Kp (Swiss albino, mouse, frontal cortex, ip, read-out: Brain structure-to-plasma concentration ratio, frontal cortex (FC/P)): 10.5; AUC(0-t) (Swiss albino, mouse, frontal cortex, ip, read-out: AUC0→t, frontal cortex (converted)): 363 ng·h/mL; MRT (Swiss albino, mouse, frontal cortex, ip, read-out: MRT, frontal cortex (converted)): 1.54 h; concentration at 5 min (Swiss albino, mouse, frontal cortex, ip, 1.25 mg/kg, 5 min, read-out: Concentration, frontal cortex (Mean)): 355 ng/mL; concentration at 5 min (Swiss albino, mouse, frontal cortex, ip, 1.25 mg/kg, 5 min, read-out: Concentration, frontal cortex (individual animals)): 408 ng/mL; concentration at 15 min (Swiss albino, mouse, frontal cortex, ip, 1.25 mg/kg, 15 min, read-out: Concentration, frontal cortex (Mean)): 251 ng/mL; concentration at 15 min (Swiss albino, mouse, frontal cortex, ip, 1.25 mg/kg, 15 min, read-out: Concentration, frontal cortex (individual animals)): 233 ng/mL; concentration at 30 min (Swiss albino, mouse, frontal cortex, ip, 1.25 mg/kg, 30 min, read-out: Concentration, frontal cortex (Mean)): 201 ng/mL; concentration at 30 min (Swiss albino, mouse, frontal cortex, ip, 1.25 mg/kg, 30 min, read-out: Concentration, frontal cortex (individual animals)): 209 ng/mL; concentration at 60 min (Swiss albino, mouse, frontal cortex, ip, 1.25 mg/kg, 60 min, read-out: Concentration, frontal cortex (Mean)): 95.8 ng/mL; concentration at 60 min (Swiss albino, mouse, frontal cortex, ip, 1.25 mg/kg, 60 min, read-out: Concentration, frontal cortex (individual animals)): 104 ng/mL; concentration at 120 min (Swiss albino, mouse, frontal cortex, ip, 1.25 mg/kg, 120 min, read-out: Concentration, frontal cortex (Mean)): 41 ng/mL; concentration at 120 min (Swiss albino, mouse, frontal cortex, ip, 1.25 mg/kg, 120 min, read-out: Concentration, frontal cortex (individual animals)): 40.3 ng/mL; concentration at 240 min (Swiss albino, mouse, frontal cortex, ip, 1.25 mg/kg, 240 min, read-out: Concentration, frontal cortex (Mean)): 12.8 ng/mL; concentration at 240 min (Swiss albino, mouse, frontal cortex, ip, 1.25 mg/kg, 240 min, read-out: Concentration, frontal cortex (individual animals)): 9.95 ng/mL; concentration at 480 min (Swiss albino, mouse, frontal cortex, ip, 1.25 mg/kg, read-out: Concentration, frontal cortex (Mean)): 2.98 ng/mL; concentration at 480 min (Swiss albino, mouse, frontal cortex, ip, 1.25 mg/kg, read-out: Concentration, frontal cortex (individual animals)): 1.96 ng/mL; Cmax (Swiss albino, mouse, frontal cortex, ip, 1.25 mg/kg, read-out: Cmax, frontal cortex): 355 ng/g; Tmax (Swiss albino, mouse, frontal cortex, ip, 1.25 mg/kg, read-out: tmax, frontal cortex (converted)): 5 min; Kp (Swiss albino, mouse, hippocampus, ip, read-out: Brain structure-to-plasma concentration ratio, hippocampus (H/P)): 12.6; AUC(0-t) (Swiss albino, mouse, hippocampus, ip, read-out: AUC0→t, hippocampus (converted)): 436 ng·h/mL; MRT (Swiss albino, mouse, hippocampus, ip, read-out: MRT, hippocampus (converted)): 1.78 h; concentration at 5 min (Swiss albino, mouse, hippocampus, ip, 1.25 mg/kg, 5 min, read-out: Concentration, hippocampus (Mean)): 274 ng/mL
